Values of other authors in patent publication US9155702B2, “Composition and microsphere for controlled-release of exendin, and method preparing the same” (PEPTRON CO., LTD, priority 2007, dated 2015).

Test system: diabetic ob/ob mice
Settings: intraperitoneal injections once per day

For exendin-4, the “effect of lowering the blood-sugar level” value is given as “prolonged effect of lowering the blood-sugar level”.
